Values of other authors as cited in US11857677B2, “Ready to use injectable formulations of melphalan and processes for preparation thereof” (RK Pharma Solutions LLC, priority 2019, dated 2024).

## N[C@@H](Cc1ccc(N(CCCl)CCCl)cc1)C(=O)O [Melphalan, 4-[bis(2-chloroethyl)amino]-L-phenylalanine]
  Solubility in water: practically insoluble
